Source: patent US10471080B2, “Use of trehalose for prevention of neural tube defects” (UNIVERSITY OF MARYLAND, BALTIMORE, priority 2012, dated 2019)
Values belong to the compound of their own block, whether it stands above or below them.

What was measured:
[1] = tested on: maternal diabetes-induced NTDs; assay: In vivo mouse model of diabetic embryopathy, morphologic assessment of NTDs at E11.5
Protocol: In vivo mouse model of diabetic embryopathy and morphologic assessment of NTDs. The mouse model of diabetic embryopathy was previously described (21, 22). Briefly, female mice were intravenously (i.v.) injected daily with 75 mg/kg streptozotocin (STZ) over two days to induce diabetes. Nondiabetic WT with vehicle injection served as controls. Diabetes was defined as 12-hour fasting blood glucose levels ≥250 mg/dl, which normally occurred at 3-5 days after STZ injections. There is no residual toxic effect caused by STZ in this animal model. Embryos were gathered at E8.75 (2:00 PM at E8.5) for analysis and at E11.5 from NTD examination.
(§1) Trehalose treatment and trehalose measurement. Concentrations of either 2% or 5% (gram/volume [ml]) trehalose (Cat#: T9531, Sigma) were given to WT nondiabetic and diabetic pregnant mice at E5.5 in drinking water. Trehalose levels in maternal serum and embryos were determined by the Trehalose Kit from Megazyme (Wicklow, Ireland).
Statistical analyses. Statistical differences were determined by Student's t-test for two group comparisons and One way ANOVA for more than two groups comparisons using SigmaStat 3.5 software. In ANOVA analysis, Tukey-test was used to estimate the significance of the results. Significant difference between groups in NTD incidence was analyzed by Chi-square test.

[2] = Trehalose measurement in maternal serum and embryos (Trehalose Kit, Megazyme); type: in vivo, mouse; conditions: diabetic dams
Protocol: as §1

[3] = tested on: neuroepithelial cell apoptosis; assay: Pro-apoptotic Bcl-2 members, caspase cleavage and TUNEL assay in E8.75 embryos; type: in vivo, mouse; conditions: diabetic group with 5% trehalose
Protocol: TUNEL assay. TUNEL assay was performed as previously described (21, 22). Briefly, 5-μm serial coronal sections through the forebrain-midbrain (FB-MB) boundary of the anterior neural tube were fixed with 4% PFA in PBS and incubated with TUNEL reaction agents. Closure at the FB-MB boundary is an essential step for closure of the anterior neural tube, and failed closure in this area results in exencephaly (2, 8). TUNEL-positive cells were counted in the neural tube area of each section. Based on the counting of total cell nuclei, the sizes of the neural tube areas of each section were relatively constant. Thus, apoptotic cell numbers were expressed as total TUNEL-positive cells per neural tube area. TUNEL assays were performed without the observer knowing the experimental group of the embryo examined.

LC3-II [4] = assay: LC3-II levels in E8.75 embryos; type: in vivo, mouse; conditions: E8.75 embryos of diabetic dams
[5] = tested on: neurogenesis in the developing neural tube; assay: Immunofluorescent staining of TuJ1 and Sox1 in developing neural tubes (neurogenesis); type: in vivo, mouse; conditions: neural tubes exposed to diabetes
Protocol: Immunofluorescent staining. […] Deparaffinized sections were incubated with TuJ 1 antibody (Covance, #MMS-435P) at 1:400 dilution or Sox1 antibody (Cell Signaling, #4194) at 1:100 dilution in PBS with 10% heat-inactivated donkey serum overnight at 4° C. After washes in PBS, sections were incubated with secondary antibodies, Alexa Fluor® 488 Donkey Anti-Mouse IgG to TuJ1, and Alexa Fluor® 594 Donkey Anti-Rabbit IgG to Sox1. Cell nuclei were stained with DAPI (Blue). Immunofluorescent staining was examined by immunofluorescence microscopy. In order to visualize neurogenesis throughout the anterior neural tube, serial sections through the entire anterior neural tube were analyzed and representative images were shown. The earliest neurogenesis site was found at the boundary of midbrain and hindbrain. Five embryos from five dams per group were analyzed.

[6] = tested on: ER stress and JNK1/2 activation; assay: ER stress markers and JNK1/2 activation in E8.75 embryos; type: in vivo, mouse; conditions: diabetic group with 5% trehalose
[7] = tested on: embryonic neuroepithelial cells; assay: GFP-LC3 puncta analysis in GFP-LC3 transgenic mice; type: in vivo, mouse
Protocol: GFP-LC3 puncta analysis. GFP-LC3 transgenic (Tg) mice were used to quantify autophagy in vivo. E8.75 embryos were gathered, fixed in 4% paraformaldehyde (PFA) in PBS for 30 min at 4° C., quickly frozen, and cryosectioned at […] GFP florescent images in embryonic neuroepithelial cells were recorded by confocal microscopy using a laser scanning microscope (LSM 510 META, ZEISS). GFP-LC3 punctate foci with a diameter greater than or equal to 20 pixels in each cell were calculated by Image J software according to the manufacturer's manual.

neuroepithelial cells = assay: Electron microscopy of autophagosomes and mitochondria in E8.75 neuroepithelia; type: in vivo, mouse
Source text: Electron microscopy. The structures of autophagosome and mitochondria were examined by transmission electron microscopy (EM) in the University of Maryland EM core facility. Thick sections (1 μm) were cut and visualized at ×100 magnifications to identify the neuroepithelia of E8.75 embryos. Thin sections (80 nm) of identified neuroepithelia were cut and viewed with an electron microscope (Joel JEM-1200EX; Tokyo, Japan) under high-power resolution (10, 12 and 25 K) for identification of cellular organelle structures.

[8] = tested on: ULK1, Beclin 1, Atg3, Atg5, Ambra1, p62, Dap; assay: Autophagy-related gene expression in E8.75 embryos; type: in vivo, mouse; conditions: diabetic group
[9] = tested on: 4-HNE, MDA, nitrotyrosine or ubiquitin-modified proteins; assay: Levels of oxidized and ubiquitin-modified (dysfunctional) proteins in E8.75 embryos; type: in vivo, mouse; conditions: diabetic group with 5% trehalose
autophagy = conditions: in vitro; cited from earlier work
LC3-II [10] = assay: LC3-II levels in cultured E8 embryos under high glucose with or without Chloroquine; conditions: high glucose 250 mg/dl, 25 μmol/L Chloroquine
NTDs = conditions: cited from earlier work

Resorption Rates ([1]; Diabetic + 2% trehalose, E11.5): 4.7 | Resorption Rates ([1]; Nondiabetic + 2% trehalose, E11.5): 4.8 | Resorption Rates ([1]; nondiabetic and diabetic dams with or without trehalose treatments): did not differ | embryonic trehalose levels ([2]; 2% group): 15.8±1.0 μg/g tissue | trehalose in maternal blood ([2]; 2% trehalose in drinking water): 162.0 ± 16.9 µg/mL | embryonic trehalose levels ([2]; 5% group): 53.9±3.7 μg/g tissue | trehalose in maternal blood ([2]; 5% trehalose in drinking water): 503.9 ± 19.3 µg/mL
SMILES: OC[C@H]1O[C@H](O[C@H]2O[C@H](CO)[C@@H](O)[C@H](O)[C@H]2O)[C@H](O)[C@@H](O)[C@@H]1O [trehalose]
maternal diabetes-induced NTDs ([1]; 2% trehalose, diabetic dams, lesser extent than 5%): significantly reduced maternal diabetes-induced NTDs | NTD rate ([1]; Diabetic + 2% trehalose in drinking water from E5.5, E11.5, total NTD embryos/total embryos): 9.8% | Total NTD Embryos ([1]; Diabetic + 2% trehalose, E11.5, of 41 total embryos): 4 | NTD rate ([1]; Nondiabetic + 2% trehalose in drinking water from E5.5, E11.5, total NTD embryos/total embryos): 0% | Total NTD Embryos ([1]; Nondiabetic + 2% trehalose, E11.5, of 29 total embryos): 0 | NTD rate ([1]; embryos from diabetic dams treated with 5% trehalose water (weight/volume), calculated by litters): 4.0±2.2% | NTD rate ([1]; embryos from nondiabetic dams with or without trehalose treatment): 0.0±0.0% | BID cleavage [3]: prevented | caspase 3 and 8 cleavage [3]: abolished maternal diabetes-induced caspase 3 and 8 cleavage | level of phosphorylated Bad [3]: restored | neuroepithelial cell apoptosis (TUNEL) [3]: blocked neuroepithelial cell apoptosis | LC3-II expression (LC3-II [4]): restored maternal diabetes-diminished LC3-II expression | differentiation of Sox1 positive neural progenitors [5]: corrected maternal diabetes-blocked differentiation of Sox1 positive neural progenitors | neurogenesis (TuJ1 expressing neurons) ([5]; E9.0 to E10.5): reversed delayed neurogenesis | JNK1/2 activation and downstream effector c-Jun [6]: completely abolished maternal diabetes-induced JNK1/2 activation | XBP1 mRNA splicing [6]: diminished XBP1 mRNA splicing | expression or phosphorylation of ER chaperone proteins BiP, CHOP, eIF2α [6]: abrogated maternal diabetes-increased expression or phosphorylation | expression of 7 ER chaperone genes ([6]; mRNA): abolished | number of autophagic GFP-LC3 puncta in neuroepithelial cells ([7]; diabetic group treated with trehalose, E8.75): restored to the level of that observed in the nondiabetic groups | basal autophagy activities in neuroepithelial cells ([7]; nondiabetic group): did not affect basal autophagy activities | number of defective mitochondria (neuroepithelial cells; diabetic conditions, E8.75 neuroepithelia): significantly reduced the number of defective mitochondria to a level comparable to that in the nondiabetic control group | autophagosome formation in neuroepithelial cells (neuroepithelial cells; diabetic group, E8.75): blocked maternal diabetes-repressed autophagosome formation | expression of ULK1, Beclin 1, Atg3, Atg5, and Ambra1 [8]: blocked the downregulation | expression of p62 and Dap [8]: blocked | levels of 4-HNE, MDA, nitrotyrosine or ubiquitin-modified proteins [9]: blocked maternal diabetes-increased levels of all of these modified proteins | autophagy stimulating activities (autophagy): possess autophagy stimulating activities in vitro

SMILES: CCN(CC)CCCC(C)Nc1ccnc2cc(Cl)ccc12 (centres unmarked) [Chloroquine]
high glucose-induced LC3-II reduction (LC3-II [10]): did not block high glucose-induced LC3-II reduction

SMILES: O[C@H]1[C@H](O)[C@@H](O)[C@H](O)[C@@H](O)[C@H]1O [inositol]
folate-resistant NTDs (NTDs): can prevent some of the folate-resistant NTDs
